Experimental data as given in ChEMBL document CHEMBL3885881, “DrugMatrix”.
“And” between values parts separate entries of the source, which are not always exact repeats. Equal values may be shown once.

Species: Rattus norvegicus
Test: DrugMatrix - Regimen: Daily Repeat
Type: toxicity, organism-based, Sprague-Dawley
Parameters: regimen Daily Repeat, gender Male, age 6-8 weeks
Settings: in vivo, po, route oral GAVAGE, vehicle 100 % SALINE; for ABSOLUTE BASOPHIL / ABSOLUTE LYMPHOCYTE / ABSOLUTE SEGMENTED NEUTROPHIL / BASOPHIL / EOSINOPHIL / ERYTHROCYTE COUNT / HEMATOCRIT / HEMOGLOBIN / LEUKOCYTE COUNT / LYMPHOCYTE / MEAN CORPUSCULAR HEMOGLOBIN / MEAN CORPUSCULAR HEMOGLOBIN CONCENTRATION / MONOCYTE / NEUTROPHIL / NUCLEATED RED BLOOD CELLS / PLATELET COUNT / ABSOLUTE EOSINOPHIL / ABSOLUTE MONOCYTE: tissue Blood; for ALANINE AMINOTRANSFERASE / ALBUMIN / ALKALINE PHOSPHATASE / ASPARTATE AMINOTRANSFERASE / BLOOD UREA NITROGEN / CARBON DIOXIDE / CHLORIDE / CHOLESTEROL / CREATINE PHOSPHOKINASE / CREATININE / GLUCOSE / LIPASE / PHOSPHORUS / SODIUM / TOTAL BILIRUBIN / TOTAL PROTEIN / LACTATE DEHYDROGENASE: tissue Plasma
[1] = 0 mg/kg, 72 h, dose level Control, time 3 day
[2] = 0 mg/kg, 120 h, dose level Control, time 5 day
[3] = 0 mg/kg, […], dose level Control, time 7 day
[4] = 140 mg/kg, 72 h, dose level Low, time 3 day
[5] = 140 mg/kg, 120 h, dose level Low, time 5 day
[6] = 700 mg/kg, 72 h, dose level Low, time 3 day

## CN(C)C=O [DIMETHYLFORMAMIDE]
[1]
  ABSOLUTE BASOPHIL: 0 CELLS/uL
  ABSOLUTE LYMPHOCYTE: 8960.83 CELLS/uL and 11922.83 CELLS/uL
  ABSOLUTE SEGMENTED NEUTROPHIL: 635.67 CELLS/uL and 1526.33 CELLS/uL
  BASOPHIL: 0%
  EOSINOPHIL: 0% and 0.5%
  ERYTHROCYTE COUNT: 5.09 x10E6/uL and 5.62 x10E6/uL
  HEMATOCRIT: 31.8% and 37.17%
  HEMOGLOBIN: 12.42 G/DL and 13.53 G/DL
  LEUKOCYTE COUNT: 9.7 x10E3/uL and 13.92 x10E3/uL
  LYMPHOCYTE: 92.33% and 86.17%
  MEAN CORPUSCULAR HEMOGLOBIN: 24.4 pg and 24.07 pg
  MEAN CORPUSCULAR HEMOGLOBIN CONCENTRATION: 39.07 G/DL and 36.42 G/DL
  MONOCYTE: 1% and 3%
  NEUTROPHIL: 6.67% and 10.33%
  NUCLEATED RED BLOOD CELLS: 0 /100WBC
  PLATELET COUNT: 466.5 x10E3/uL and 1107 x10E3/uL
  ALANINE AMINOTRANSFERASE: 83.33 u/L and 45.33 u/L
  ALBUMIN: 4.33 G/DL and 4.3 G/DL
  ALKALINE PHOSPHATASE: 340.5 u/L and 321.33 u/L
  ASPARTATE AMINOTRANSFERASE: 189.83 u/L and 77.33 u/L
  BLOOD UREA NITROGEN: 15.83 mg/dL and 14.33 mg/dL
  CARBON DIOXIDE: 38 mmol/L and 32.33 mmol/L
  CHLORIDE: 96.83 MEQ/L and 99.67 MEQ/L
  CHOLESTEROL: 72.5 mg/dL and 82.33 mg/dL
  CREATINE PHOSPHOKINASE: 370.67 u/L and 205.5 u/L
  CREATININE: 0.28 mg/dL and 0.19 mg/dL
  GLUCOSE: 182.83 mg/dL and 150.83 mg/dL
  LIPASE: 9.83 u/L and 10.83 u/L
  PHOSPHORUS: 11.32 mg/dL and 10.9 mg/dL
  SODIUM: 145.12 MEQ/L and 145.15 MEQ/L
  TOTAL BILIRUBIN: 0.2 mg/dL and 0.12 mg/dL
  TOTAL PROTEIN: 6.4 G/DL and 6.22 G/DL
[2]
  ABSOLUTE BASOPHIL: 0 CELLS/uL
  ABSOLUTE EOSINOPHIL: 43.83 CELLS/uL
  ABSOLUTE LYMPHOCYTE: 7316.67 CELLS/uL
  ABSOLUTE MONOCYTE: 87.33 CELLS/uL
  ABSOLUTE SEGMENTED NEUTROPHIL: 418.83 CELLS/uL
  BASOPHIL: 0%
  EOSINOPHIL: 0.33%
  ERYTHROCYTE COUNT: 4.77 x10E6/uL
  HEMATOCRIT: 29.93%
  HEMOGLOBIN: 11.48 G/DL
  LEUKOCYTE COUNT: 7.87 x10E3/uL
  LYMPHOCYTE: 93.5%
  MEAN CORPUSCULAR HEMOGLOBIN: 24.17 pg
  MEAN CORPUSCULAR HEMOGLOBIN CONCENTRATION: 38.57 G/DL
  MONOCYTE: 1%
  NEUTROPHIL: 5.17%
  NUCLEATED RED BLOOD CELLS: 0 /100WBC
  PLATELET COUNT: 377.67 x10E3/uL
  ALANINE AMINOTRANSFERASE: 89 u/L
  ALBUMIN: 4.42 G/DL
  ALKALINE PHOSPHATASE: 275.17 u/L
  ASPARTATE AMINOTRANSFERASE: 204.17 u/L
  BLOOD UREA NITROGEN: 15.33 mg/dL
  CARBON DIOXIDE: 36.83 mmol/L
  CHLORIDE: 94.67 MEQ/L
  CHOLESTEROL: 92 mg/dL
  CREATINE PHOSPHOKINASE: 514.5 u/L
  CREATININE: 0.24 mg/dL
  GLUCOSE: 184.17 mg/dL
  LACTATE DEHYDROGENASE: 648.67 u/L
  LIPASE: 10 u/L
  PHOSPHORUS: 12.33 mg/dL
  SODIUM: 144.63 MEQ/L
  TOTAL BILIRUBIN: 0.18 mg/dL
  TOTAL PROTEIN: 6.7 G/DL
[3]
  ABSOLUTE BASOPHIL: 0 CELLS/uL
  ABSOLUTE EOSINOPHIL: 22 CELLS/uL
  ABSOLUTE LYMPHOCYTE: 11105.17 CELLS/uL
  ABSOLUTE MONOCYTE: 258.17 CELLS/uL
  ABSOLUTE SEGMENTED NEUTROPHIL: 881.33 CELLS/uL
  BASOPHIL: 0%
  EOSINOPHIL: 0.17%
  ERYTHROCYTE COUNT: 5.29 x10E6/uL
  HEMATOCRIT: 34.03%
  HEMOGLOBIN: 13.67 G/DL
  LEUKOCYTE COUNT: 12.27 x10E3/uL
  LYMPHOCYTE: 90.83%
  MEAN CORPUSCULAR HEMOGLOBIN: 25.9 pg
  MEAN CORPUSCULAR HEMOGLOBIN CONCENTRATION: 40.18 G/DL
  MONOCYTE: 2.17%
  NEUTROPHIL: 6.83%
  NUCLEATED RED BLOOD CELLS: 0 /100WBC
  PLATELET COUNT: 1159.83 x10E3/uL
  ALANINE AMINOTRANSFERASE: 45.83 u/L
  ALBUMIN: 4.1 G/DL
  ALKALINE PHOSPHATASE: 240 u/L
  ASPARTATE AMINOTRANSFERASE: 88.67 u/L
  BLOOD UREA NITROGEN: 13.67 mg/dL
  CARBON DIOXIDE: 31.83 mmol/L
  CHLORIDE: 96.83 MEQ/L
  CHOLESTEROL: 71.17 mg/dL
  CREATINE PHOSPHOKINASE: 202.5 u/L
  CREATININE: 0.22 mg/dL
  GLUCOSE: 132.67 mg/dL
  LACTATE DEHYDROGENASE: 107.17 u/L
  LIPASE: 10.5 u/L
  PHOSPHORUS: 10.47 mg/dL
  SODIUM: 140.73 MEQ/L
  TOTAL BILIRUBIN: 0.12 mg/dL
  TOTAL PROTEIN: 6.18 G/DL
[4]
  ABSOLUTE BASOPHIL: 0 CELLS/uL
  ABSOLUTE EOSINOPHIL: 31.33 CELLS/uL
  ABSOLUTE LYMPHOCYTE: 5899.33 CELLS/uL
  ABSOLUTE MONOCYTE: 62.67 CELLS/uL
  ABSOLUTE SEGMENTED NEUTROPHIL: 306.67 CELLS/uL
  BASOPHIL: 0%
  EOSINOPHIL: 0.33%
  ERYTHROCYTE COUNT: 4.99 x10E6/uL
  HEMATOCRIT: 31.43%
  HEMOGLOBIN: 12.53 G/DL
  LEUKOCYTE COUNT: 6.3 x10E3/uL
  LYMPHOCYTE: 94.67%
  MEAN CORPUSCULAR HEMOGLOBIN: 25.27 pg
  MEAN CORPUSCULAR HEMOGLOBIN CONCENTRATION: 40.07 G/DL
  MONOCYTE: 0.67%
  NEUTROPHIL: 4.33%
  NUCLEATED RED BLOOD CELLS: 0 /100WBC
  PLATELET COUNT: 734 x10E3/uL
  ALANINE AMINOTRANSFERASE: 52.67 u/L
  ALBUMIN: 4.17 G/DL
  ALKALINE PHOSPHATASE: 264.67 u/L
  ASPARTATE AMINOTRANSFERASE: 88.67 u/L
  BLOOD UREA NITROGEN: 12.33 mg/dL
  CARBON DIOXIDE: 36.67 mmol/L
  CHLORIDE: 97.33 MEQ/L
  CHOLESTEROL: 97.67 mg/dL
  CREATINE PHOSPHOKINASE: 161.33 u/L
  CREATININE: 0.33 mg/dL
  GLUCOSE: 208 mg/dL
  LACTATE DEHYDROGENASE: 181.33 u/L
  LIPASE: 10.67 u/L
  PHOSPHORUS: 11.23 mg/dL
  SODIUM: 148.43 MEQ/L
  TOTAL BILIRUBIN: 0.2 mg/dL
  TOTAL PROTEIN: 6.1 G/DL
[5]
  ABSOLUTE BASOPHIL: 0 CELLS/uL
  ABSOLUTE EOSINOPHIL: 0 CELLS/uL
  ABSOLUTE LYMPHOCYTE: 9653 CELLS/uL
  ABSOLUTE MONOCYTE: 169 CELLS/uL
  ABSOLUTE SEGMENTED NEUTROPHIL: 644.67 CELLS/uL
  BASOPHIL: 0%
  EOSINOPHIL: 0%
  ERYTHROCYTE COUNT: 6.77 x10E6/uL
  HEMATOCRIT: 41.07%
  HEMOGLOBIN: 15.33 G/DL
  LEUKOCYTE COUNT: 10.47 x10E3/uL
  LYMPHOCYTE: 93.33%
  MEAN CORPUSCULAR HEMOGLOBIN: 22.63 pg
  MEAN CORPUSCULAR HEMOGLOBIN CONCENTRATION: 37.33 G/DL
  MONOCYTE: 1.67%
  NEUTROPHIL: 5%
  NUCLEATED RED BLOOD CELLS: 0 /100WBC
  PLATELET COUNT: 1170.67 x10E3/uL
  ALANINE AMINOTRANSFERASE: 57.33 u/L
  ALBUMIN: 4.4 G/DL
  ALKALINE PHOSPHATASE: 234.67 u/L
  ASPARTATE AMINOTRANSFERASE: 93.67 u/L
  BLOOD UREA NITROGEN: 17.67 mg/dL
  CARBON DIOXIDE: 34.33 mmol/L
  CHLORIDE: 96.33 MEQ/L
  CHOLESTEROL: 111.33 mg/dL
  CREATINE PHOSPHOKINASE: 195.67 u/L
  CREATININE: 0.19 mg/dL
  GLUCOSE: 171.33 mg/dL
  LACTATE DEHYDROGENASE: 243 u/L
  LIPASE: 11.33 u/L
  PHOSPHORUS: 10.83 mg/dL
  SODIUM: 145.97 MEQ/L
  TOTAL BILIRUBIN: 0.13 mg/dL
  TOTAL PROTEIN: 6.67 G/DL
[6]
  ABSOLUTE BASOPHIL: 0 CELLS/uL
  ABSOLUTE EOSINOPHIL: 0 CELLS/uL
  ABSOLUTE LYMPHOCYTE: 7783.67 CELLS/uL
  ABSOLUTE MONOCYTE: 176.17 CELLS/uL
  ABSOLUTE SEGMENTED NEUTROPHIL: 1123.5 CELLS/uL
  BASOPHIL: 0%
  EOSINOPHIL: 0%
  ERYTHROCYTE COUNT: 5.7 x10E6/uL
  HEMATOCRIT: 37.75%
  HEMOGLOBIN: 13.52 G/DL
  LEUKOCYTE COUNT: 9.08 x10E3/uL
  LYMPHOCYTE: 86.17%
  MEAN CORPUSCULAR HEMOGLOBIN: 23.73 pg
  MEAN CORPUSCULAR HEMOGLOBIN CONCENTRATION: 35.83 G/DL
  MONOCYTE: 1.83%
  NEUTROPHIL: 12%
  NUCLEATED RED BLOOD CELLS: 0 /100WBC
  PLATELET COUNT: 951.67 x10E3/uL
  ALANINE AMINOTRANSFERASE: 77.33 u/L
